# Patent US4473572A, “α2 -Adrenoceptor antagonistic benzoquinolizines” (John Wyeth & Brother, Limited, priority 1982, dated 1984)
# Key:
# [1] = molecular target: T1, α2-adrenoceptor (Rattus norvegicus, UniProt P22909); assay: α2-adrenoceptor antagonistic activity on the rat field stimulated vas deferens preparation (against clonidine); settings: for α2/α1 selectivity: antilog of (α2 pA2 - α1 pA2); for Kb: rat field stimulated vas deferens, clonidine as agonist, 37°, 90 min after introduction of antagonist, Arunlakshana & Schild, read-out: pA2 (α2) (converted)
# T1 construct: from tissue; host or cells: desheathed vas deferens of sexually mature rats
# T1 sequence (P22909 1-465): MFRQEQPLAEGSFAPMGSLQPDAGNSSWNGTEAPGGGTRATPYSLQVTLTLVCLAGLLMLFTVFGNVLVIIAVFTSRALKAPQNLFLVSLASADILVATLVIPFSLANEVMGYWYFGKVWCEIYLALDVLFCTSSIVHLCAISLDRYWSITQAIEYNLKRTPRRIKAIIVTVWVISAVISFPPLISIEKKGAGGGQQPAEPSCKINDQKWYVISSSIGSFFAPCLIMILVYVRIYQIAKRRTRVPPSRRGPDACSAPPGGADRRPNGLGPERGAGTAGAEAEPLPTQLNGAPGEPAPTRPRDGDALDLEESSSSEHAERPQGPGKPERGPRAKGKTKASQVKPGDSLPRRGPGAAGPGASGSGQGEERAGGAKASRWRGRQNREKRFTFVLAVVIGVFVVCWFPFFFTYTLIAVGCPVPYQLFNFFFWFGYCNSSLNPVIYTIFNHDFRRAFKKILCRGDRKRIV
# Experimental: The compounds of the invention were tested for their α2 -adrenoceptor antagonistic activity on the rat field stimulated vas deferens preparation using a modification of the method of Drew, Eur.J.Pharmac., 1977, 42, 123-130. The procedure is described below.
# Desheathed vas deferentia from sexually mature rats were suspended in a 6 ml organ bath in Krebs solution at 37° and bubbled with 5% CO2 in oxygen. Platinum ring electrodes were positioned above and below the tissue for field stimulation, the stimulus parameters being 0.1 Hz 1 ms pulse width at supramaximal voltage. Twitch responses were recorded isotonically with a 0.5 g loading. Clonidine hydrochloride was used as the α-adrenoceptor agonist and cumulative concentration-response curves were constructed for the inhibition of twitch obtained with clonidine in the range 0.125 to 4 ng ml^-1. After washing out clonidine, the twitch response quickly recovered and an antagonist was then introduced into the Krebs reservoir. Clonidine concentration-response curves were repeated 90 min after introduction of the antagonist. The concentration of clonidine producing 50% inhibition of twitch before and after introduction of antagonist were obtained and the dose-ratio for clonidine was calculated. Various concentrations of the antagonists were used.
# Chemother., 1959, 14, 48-58 and the values of pA2 and slope were calculated.
# [2] = molecular target: T2, α1-adrenoceptor (Rattus norvegicus, UniProt P43140); assay: α1 antagonistic activity on the isolated anococcygeus muscle of the rat (against phenylephrine or methoxamine); settings: antagonist of phenylephrine or methoxamine, 37°, 10^-6 to 10^-4 M test drug, 30 min equilibration, read-out: pA2 (α1) (converted)
# T2 construct: isolated anococcygeus muscle of the rat; from tissue; host or cells: anococcygeus muscle of male rats (250-360 g)
# T2 sequence (P43140 1-466): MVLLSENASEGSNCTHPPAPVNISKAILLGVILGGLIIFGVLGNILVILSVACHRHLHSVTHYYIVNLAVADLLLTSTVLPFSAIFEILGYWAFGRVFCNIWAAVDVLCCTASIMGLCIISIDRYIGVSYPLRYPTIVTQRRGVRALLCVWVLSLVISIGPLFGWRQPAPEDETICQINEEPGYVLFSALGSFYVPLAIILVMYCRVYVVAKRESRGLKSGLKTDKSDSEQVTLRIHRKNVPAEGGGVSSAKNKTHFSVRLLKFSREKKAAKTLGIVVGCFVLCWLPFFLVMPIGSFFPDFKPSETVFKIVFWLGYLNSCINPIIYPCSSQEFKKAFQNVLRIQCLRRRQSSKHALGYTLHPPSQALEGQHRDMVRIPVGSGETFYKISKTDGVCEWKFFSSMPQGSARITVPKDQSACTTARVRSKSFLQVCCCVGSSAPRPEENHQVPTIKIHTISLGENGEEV
# Source text: The α1 antagonistic activity can be evaluated by a number of different methods. One method involves assessing the activity on the isolated anococcygeus muscle of the rat. The method is based on that of Gillespie, Br.J.Pharmac., 1972, 45, 404-416. In the procedure male rats (250-360 g) are killed by a blow on the head and bled. The two anococcygeus muscles are removed from their position in the midline of the pelvic cavity, where they arise from the upper coccygeal vertebrae. The muscles are suspended in 5 ml organ baths in Krebs solution containing 10^-4 M ascorbic acid, to prevent drug oxidation. The tissues are gassed with a 95% oxygen, 5% CO2 mixture and maintained at 37°. Longitudinal muscle contractions are recorded using isotonic transducers. Cumulative dose response curves are then obtained to phenylephrine or in some cases methoxamine, both agents being […] alpha adrenoceptor agonists. The concentration range of phenylephrine or methoxamine used is 0.02 to 0.8 μg.ml^-1. The agonist is then washed from the bath and the test drug added to the bathing medium at a concentration of 10^-6 M. After 30 min. equilibration with the test drug a further agonist dose response curve is obtained. The washing, equilibration and agonists dosing procedures are then repeated using 10^-5 M and 10^-4 M solutions of the test drug. Estimates of the pA2 value for the test drug as an antagonist of phenylephrine or methoxamine were made from the agonist dose-ratios using the method of Arunlakshana & Schild, Br.J.Pharmac.Chemother., 1959, 14, 48-58.
SMILES,α2/α1 selectivity [1],Kb [1] [nM],Kb [2] [nM]
"CN([C@H]1CCN2CCc3ccccc3[C@H]2C1)S(=O)(=O)C(F)(F)F (relative stereo) [Example 1, N-Methyl-N-(1,3,4,6,7,11bα-hexahydro-2H-benzo[a]quinolizin-2β-yl)-trifluoromethanesulphonamide]",46,70.8,3240
"CN([C@H]1CCN2CCc3ccccc3[C@H]2C1)S(=O)(=O)CCCCl (relative stereo) [Example 4, N-Methyl-N-(1,3,4,6,8,11bα-hexahydro-2H-benzo[a]quinolizin-2β-yl)-3'-chloropropanesulphonamide]",27.5,8.32,288
"CN([C@H]1CCN2CCc3ccccc3[C@H]2C1)S(=O)(=O)CC(F)(F)F (relative stereo) [Example 2, N-Methyl-N-(1,3,4,6,7,11bα-hexahydro-2H-benzo[a]quinolizin-2β-yl)-2',2',2'-trifluoroethanesulphonamide]",43,27.5,1170
"CN([C@H]1CCN2CCc3ccccc3[C@H]2C1)S(=O)(=O)CCl (relative stereo) [Example 3, N-Methyl-N-(1,3,4,6,7,11bα-hexahydro-2H-benzo[a]quinolizin-2β-yl)chloromethanesulphonamide]",45,8.91,245
